Results published in patent US20020197244A1, “Compositions and methods for regulating phagocytosis and ICAM-1 expression” (priority 1998, published 2002).
“Also recorded” adds a separate entry of the source.

How the values were obtained:
Human keratinocytes = assay: Timing of effect on keratinocyte microsphere phagocytosis; format: cell-based; parameters: key: +: Plus signs indicate an effect on phagocytosis; −: minus signs indicate no effect on phagocytosis; −/+: plus/minus signs indicate a marginal effect on phagocytosis; conditions: effect = decrease for Compound I, increase for SLIGRL
Description: In this example, human primary keratinocytes or the human keratinocyte cell line HaCaT were used as in vitro model systems to study the effect of PAR-2 regulators on keratinocyte phagocytosis. The human primary keratinocytes used are commercially available from Clonetics (San Diego, Calif.). Cells were plated on chamber slides, at 2 chambers/slide and 60,000 cells/chamber. Cells were treated once daily, for two or three days, with Compound I (1μM), SLIGRL (10μM), or vehicle (Phosphate-buffered saline, (“PBS”) from Gibco-BRL (Gaithersburg, Md.). After two or three days of exposure to the test compounds, cells were exposed to Nile-red or FITC fluorescent microspheres, 1 μm in diameter, 50 microspheres/cell, for two hours at 37° C. Microspheres were from Molecular Probes (Eugene, Oreg.), and were processed according to manufacturer's instructions. Following that treatment, cells were incubated with 15% Fetal Bovine Serum (“FBS”, from Gibco-BRL), for 15 minutes at 37° C. and rinsed with PBS. At that time, chambers were separated from the slides, and the slides were covered with glycerol and coverslips. Fluorescent microscopy was performed using a Zeiss Axiovert 35 or a Nikon Optiphot-2 microscope.
Human keratinocytes were treated with Compound I or SLIGRL for periods of time ranging from one hour to two days. At the end of the treatment period, the cells were treated with microspheres as described in Example 1. […] Plus signs indicate an effect on phagocytosis, minus signs indicate no effect on phagocytosis, and plus/minus signs indicate a marginal effect on phagocytosis. The effects measured were a decrease for Compound I and an increase for SLIGRL. […] This implies that the PAR-2 signaling results in new protein synthesis, a reduction in protein synthesis when a turnover time is required to eliminate the existing relevant protein(s), or a rearrangement of proteins (as occurs in the reorganization of cytoskeletal components).

[1] = tested on: human primary keratinocytes; assay: Fluorescent microsphere ingestion by human primary keratinocytes; format: cell-based; conditions: treated two days; Compound I 1μM, SLIGRL 10μM; vs vehicle control; FIG. 1
Description: In order to study the role of the PAR-2 pathway in phagocytosis, several in vitro model systems were used. One system used contained primary human keratinocytes or a human keratinocyte cell line. In this and a number of following examples, cells were treated with test compounds for different amounts of time (from one hour to three days), and samples were then incubated with fluorescent microspheres for two hours. The beads ingested by the cells were photographed using fluorescence microscopy.
In this example, human primary keratinocytes or the human keratinocyte cell line HaCaT were used as in vitro model systems to study the effect of PAR-2 regulators on keratinocyte phagocytosis. The human primary keratinocytes used are commercially available from Clonetics (San Diego, Calif.). Cells were plated on chamber slides, at 2 chambers/slide and 60,000 cells/chamber. […]
Microspheres were also found around the cell, probably because they are non-specifically attached to extracellular-matrix components secreted by the cell. The quantity of the microspheres ingested was changed with the treatments.

ICAM-1 = ICAM-1 immuno-precipitation and Western blotting in keratinocytes; format: cell-based; conditions: treated keratinocytes; FIG. 6B
Description: Immuno-precipitation and Western blotting experiments were performed, according to known methods, to assess the level of ICAM-1 protein in treated keratinocytes.

MelanoDerm equivalents = assay: Pigmentation in melanocyte-containing epidermal equivalents; format: cell-based; conditions: keratinocyte-melanocyte contact
Description: (§1) Since PAR-2 is expressed in keratinocytes, but not in melanocytes, the possible requirement of keratinocyte-melanocyte contact was tested for the effect of Compound I and SLIGRL on melanosome phagocytosis by the keratinocytes. Primary melanocyte cultures (commercially available from Clonetics, San Diego) were plated under epidermal equivalents (EpiDerm, of MatTek, Ashland, Mass.) to create an equivalent-monolayer co-culture with no contact between keratinocytes and melanocytes. These co-cultures were compared to MelanoDerm equivalents (of MatTek), where melanocytes are present in the basal layer of the equivalent. Cultures were treated with Compound I, with the […], and with the PAR-2 agonist SLIGRL. As set forth in Table 3, keratinocytes are indicated by “K”, melanocytes are indicated by “M”, and lack of keratinocyte-melanocyte contact is indicated as “no K-M cont”. […] The same result was also observed with monolayer keratinocyte/melanocyte co-cultures having keratinocyte/melanocyte contact.

[2] = tested on: monolayer keratinocyte/melanocyte co-cultures; assay: Pigmentation in monolayer keratinocyte/melanocyte co-cultures (K-M contact); format: cell-based; conditions: keratinocyte-melanocyte contact
Description: as §1

Human PMN cells = assay: PMN chemotactic migration towards FMLP, Boyden chamber; format: cell-based; conditions: cells counted at 115 microns; PMN pretreated with 5 or 0.5 mg/ml STI or 1 or 0.1 μM Compound I; buffer without FMLP: 19 at 80 μ
Description: Since ICAM-1 is involved in cell migration, cell migration towards a chemotactic peptide was studied in cells treated with Compound I and STI. Human PMN cells were placed in one side of a Boyden chamber, using standard techniques, and a chemotactic peptide (FMLP) was placed in the other chamber. Cells were allowed to migrate into the second chamber, and the number of migrating cells per field and distance of migration were calculated. The experiment was repeated with PMN cells pretreated with one of the following: 5 or 0.5 mg/ml STI, 1 or 0.1 μM Compound I, a buffer vehicle, and with and without chemotactic peptide. The number of cells per field that migrated the same distance as the untreated control was measured. Without the peptide and with no treatment, an average of 19 cells/field were migrating a distance of 80 microns. […] In other words, no cells (or less than 5/field) were identified at 115 microns. […] The ability to inhibit PMN migration is an important constituent of anti-inflammatory compounds.

[3] = tested on: melanocyte cultures plated under epidermal equivalents (EpiDerm); assay: Pigmentation in equivalent-monolayer co-culture (no K-M contact); format: cell-based; conditions: no keratinocyte-melanocyte contact
Description: as §1

[4] = tested on: human skin, grafted on immuno-suppressed mice; assay: Pigmentation of human skin grafted on immuno-suppressed mice; format: in vivo
Description: Human white facial skin samples were grafted on immuno-suppressed mice using standard techniques. About six weeks later grafts of the same individual, grafted on different mice, were treated with vehicle (ethanol: propylene glycol 70:30), or with 50 μM SLIGRL. Treatment was performed daily, 5 days/week. Darkening of the SLIGRL-treated grafts was visually observed during the last weeks of treatment (see FIG. 7A). On day 66, the animals were sacrificed and their skins were analyzed histologically.
The same experiment was repeated with black human breast skin samples grafted on immuno-suppressed mice. Grafts of the same individual were treated with vehicle (GDL liposomes) or with 1% STI. GDL liposomes were prepared as set forth in Niemiec, et al., with the exception of the following changes: the non-ionic liposomal formulation contained glycerol dilaurate (Emulsynt GDL, ISP Van Dyk)/cholesterol (Croda)/polyoxyethylene-10-stearyl ether (Brij76, ICI)/polyoxyethylene-9-lauryl ether, at ratio of 37.5:12.5:33.3:16.7. Hepes buffer, 0.05M, pH 7.4 (Gibco-BRL of Gaithersburg, Md.) was used as the aqueous phase in the preparation of the liposomes.

Row | Molecule | effect on phagocytosis (Human keratinocytes; 1 hour of treatment) | effect on phagocytosis (Human keratinocytes; 2 hours of treatment) | effect on phagocytosis (Human keratinocytes; 4 hours of treatment) | effect on phagocytosis (Human keratinocytes; 6 hours of treatment) | effect on phagocytosis (Human keratinocytes; 8 hours of treatment) | effect on phagocytosis (Human keratinocytes; 16 hours of treatment) | effect on phagocytosis (Human keratinocytes; 24 hours of treatment) | effect on phagocytosis (Human keratinocytes; 48 hours of treatment) | quantity of ingested microspheres [1] | level of ICAM-1 protein expression (ICAM-1) | level of pigmentation, Epidermal Equivalents (K-M cont.) (MelanoDerm equivalents) | level of pigmentation, Mono-Layer Co-Cultures (K-M cont.) [2] | Cells/Field (Human PMN cells) | level of pigmentation, Equivalent Monolayer Co-culture (no K-M cont.) [3] | visual appearance of grafts ([4]; white facial skin grafts, 50 μM SLIGRL topical daily, 5 days/week, last weeks of treatment, FIG. 7A) | melanin in F&M-stained sections ([4]; white facial skin grafts, 50 μM SLIGRL, day 66, FIG. 7B) | pigmentation in F&M-stained skin sections ([4]; black breast skin grafts, 1% STI in GDL liposomes, FIG. 7C)
1 | CN[C@H](Cc1ccccc1)C(=O)N1CCCC1C(=O)N[C@@H](CCCNC(=N)N)C(=O)c1nc2ccccc2s1 (stereo partly drawn) [Compound I, (S)-N-Methyl-D-phenylalanyl-N-[4-[(aminoiminomethyl)amino]-1-(2-benzothiazolylcarbonyl)butyl]-L-prolinamide] | − | − | − | − | −/+ | + | + | + | dramatic reduction in the quantity of ingested microspheres | decreased the level of ICAM-1 expression | reduced; also recorded: lightening | lightening | <5 cells/field | no effect |  |  | 
2 | SLIGRL [reference compound] | − | − | − | − | −/+ | + | + | + | dramatic increase in the number of ingested microspheres | increased the level of ICAM-1 expression | induced pigmentation; also recorded: darkening | darkening |  | no effect | Darkening | increase in melanin | 
3 | STI: Soybean trypsin inhibitor, a serine protease inhibitor capable of affecting the PAR-2 pathway (protein, UniProt P01070 25-205, looked up) Trypsin inhibitor A: DFVLDNEGNPLENGGTYYILSDITAFGGIRAAPTGNERCPLTVVQSRNELDKGIGTIISSPYRIRFIAEGHPLSLKFDSFAVIMLCVGIPTEWSVVEDLPEGPAVKIGENKDAMDGWFRLERVSDDEFNNYKLVFCPQQAEDDKCGDIGISIDHDDGTRRLVVSKNKPLVVQFQKLDKESL |  |  |  |  |  |  |  |  |  |  |  |  | <5 cells/field |  |  |  | reduce pigmentation in human skin
